How the values were obtained:
Assay in all cases: relative viability (nuclei count vs DMSO), 5 days (fraction); higher = more cells survive
[1] = compound: CN1CCN(CC1)C2=CC(=C(C=C2)NC3=NC=C4C(=N3)N(C5=CC=CC=C5C(=O)N4C)C)OC [XMD8-85] + CC(=O)Nc1cccc(-n2c(=O)n(C3CC3)c(=O)c3c(Nc4ccc(I)cc4F)n(C)c(=O)c(C)c32)c1 [Trametinib] (partner 0.02 µM)
In short: (§1)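 Cells from lung cancer lines were seeded into 1536-well plates and, one day later, dosed by pin tool. Treatments were either a single drug or a fixed dose of an anchor drug with five library-drug doses (not always all listed) in √10 steps. After 5 days, nuclei were stained in a one-step fixation (final 0.05% Triton X-100, 1% formaldehyde, 1 ug/ml Hoechst) and counted on 4× images, and relative viability is the treated-to-vehicle nuclei ratio, as the median of duplicate plates.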

[2] = compound: O=C(O)C(Cc1ccccc1[N+](=O)[O-])=NNc1nc(-c2ccc(Cl)c(Cl)c2)cs1 (mixture of isomers) [4EGI-1] + CC1(C)CCC(c2ccc(Cl)cc2)=C(CN2CCN(c3ccc(C(=O)NS(=O)(=O)c4ccc(N[C@H](CCN5CCOCC5)CSc5ccccc5)c(S(=O)(=O)C(F)(F)F)c4)cc3)CC2)C1 [Navitoclax] (partner 0.5 µM)
In short: as §1

[3] = compound: O=C(O)C(Cc1ccccc1[N+](=O)[O-])=NNc1nc(-c2ccc(Cl)c(Cl)c2)cs1 (mixture of isomers) [4EGI-1]
In short: (§2)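 MetaXpress counted nuclei in 4× images of lung cancer cell lines that had been fixed, permeabilised and Hoechst-stained in one step. Before that, cells in 1536-well plates were kept overnight at 37 °C, pinned with five √10-spaced library-drug doses on vehicle-anchored plates, and cultured 5 days without medium change. Viability takes treated-well nuclei over vehicle-well nuclei and uses the median across plates. Plates were accepted only at control CV below 25% and at least one doubling.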

[4] = compound: CN1CCN(CC1)C2=CC(=C(C=C2)NC3=NC=C4C(=N3)N(C5=CC=CC=C5C(=O)N4C)C)OC [XMD8-85]
In short: as §2

| Cell Line | relative viability ([1]; first compound 0.08 µM) | relative viability ([1]; first compound 0.253 µM) | relative viability ([1]; first compound 0.8 µM) | relative viability ([1]; first compound 2.53 µM) | relative viability ([1]; first compound 8 µM) | relative viability ([2]; first compound 0.5 µM) | relative viability ([2]; first compound 5 µM) | relative viability ([2]; first compound 15.81 µM) | relative viability ([2]; first compound 50 µM) | relative viability ([3]; 0.5 µM) | relative viability ([3]; 5 µM) | relative viability ([3]; 15.81 µM) | relative viability ([3]; 50 µM) | relative viability ([4]; 0.08 µM) | relative viability ([4]; 0.253 µM) | relative viability ([4]; 0.8 µM) | relative viability ([4]; 2.53 µM) | relative viability ([4]; 8 µM) | relative viability ([2]; first compound 1.581 µM) | relative viability ([3]; 1.581 µM) |
| --- | --- | --- | --- | --- | --- | --- | --- | --- | --- | --- | --- | --- | --- | --- | --- | --- | --- | --- | --- | --- |
| LCLC-97TM1 | 0.178 | 0.174 | 0.218 | 0.153 | 0.116 | 0.57 | 0.408 | 0.374 | 0.267 | 1.01 | 1.19 | 0.963 | 0.632 | 0.915 | 0.991 | 1.24 | 1.09 | 1.05 |  |  |
| PC-14 | 0.733 | 0.703 | 0.756 | 0.6 | 0.306 | 1.09 | 0.985 |  | 0.981 | 1.01 | 1.05 | 0.341 | 0.395 | 0.996 | 0.906 | 0.984 | 1.03 | 0.587 |  |  |
| NCI-H23 | 0.419 | 0.402 | 0.369 | 0.28 | 0.24 | 1.12 | 0.947 | 0.883 | 0.708 | 1.1 | 1.06 | 1.03 | 0.298 | 0.917 | 0.95 | 0.982 | 1 | 0.72 |  |  |
| NCI-H727 | 0.373 | 0.375 | 0.405 | 0.37 | 0.368 | 0.434 | 0.427 | 0.257 | 0.204 | 1.06 | 0.909 | 0.795 | 0.59 | 0.883 | 0.9 | 0.958 | 0.713 | 0.62 | 0.519 | 0.991 |
| COR-L 105 | 0.432 | 0.465 | 0.433 | 0.506 | 0.437 | 0.618 | 1.02 | 0.597 | 0.43 | 0.91 | 0.986 | 0.644 | 0.648 | 0.913 | 0.861 | 0.836 | 0.853 | 0.411 | 0.668 | 0.879 |
| NCI-H1975 | 0.37 | 0.376 | 0.334 | 0.361 | 0.268 | 1.2 | 0.984 | 1.08 | 1.18 | 1.02 | 1 | 0.996 | 0.768 | 0.989 | 0.92 | 0.98 | 0.962 | 0.638 | 1.05 | 0.904 |
| NCI-H2023 | 0.515 | 0.535 | 0.685 | 0.557 | 0.284 | 1 | 0.989 | 0.626 | 0.175 | 1.27 | 1.1 | 0.376 | 0.129 | 0.837 | 1.02 | 0.99 | 1 | 0.559 |  |  |
| EMC-BAC-2 | 0.901 | 0.879 | 0.895 | 0.828 | 0.67 | 1.16 | 1.05 | 1.08 | 1.09 | 1.07 | 1.07 | 0.976 | 0.538 | 1.04 | 1.03 | 0.956 | 1.01 | 0.778 | 1.2 |  |
| LK-2 | 0.858 | 0.611 | 0.538 | 0.448 | 0.312 | 1.18 | 1.16 | 1.14 | 0.877 | 1.11 | 1.29 | 1.08 | 0.854 | 0.97 | 1.08 | 0.928 | 0.67 | 0.616 |  |  |
| EPLC-272H | 0.276 | 0.271 | 0.272 | 0.313 | 0.251 | 1.31 | 1.35 | 0.951 | 0.969 | 1.07 | 1.12 | 0.713 | 0.235 | 0.937 | 1.07 | 0.885 | 0.876 | 0.608 | 0.938 | 0.659 |
| HCC-366 | 0.33 | 0.35 | 0.467 | 0.324 | 0.307 | 1.18 | 1.14 | 1.15 | 1.01 | 1.02 | 1.02 | 0.983 | 0.411 | 1.03 | 1.03 | 1.07 | 1 | 0.938 | 0.954 | 0.816 |
| NCI-H1793 |  | 0.483 | 0.37 | 0.481 | 0.442 | 0.676 | 0.463 | 0.54 | 0.388 | 1.05 | 1.31 | 0.765 | 0.439 | 0.82 | 0.906 | 0.938 | 1.2 | 0.825 | 0.49 | 0.95 |
| NCI-H3122 | 0.251 | 0.223 | 0.271 | 0.303 | 0.283 | 1.01 | 1.02 | 1.06 | 1.01 | 0.987 | 0.969 | 0.964 | 0.683 | 1.09 | 0.965 | 1.08 | 0.972 | 0.967 | 0.975 | 0.918 |
| NCI-H596 | 0.866 | 0.72 | 0.675 | 0.769 | 0.696 | 0.956 | 0.86 | 0.869 | 0.805 | 1.19 | 1.14 | 0.954 | 0.594 | 0.946 | 0.942 | 1.03 | 0.987 | 0.696 | 0.708 | 0.788 |
| NCI-H2087 | 0.17 | 0.203 | 0.19 | 0.19 | 0.172 | 1.08 | 0.999 | 0.647 | 0.218 | 1.24 | 0.975 | 0.694 | 0.256 | 1.07 | 0.984 | 1.09 | 1.05 | 0.811 | 0.883 | 1.05 |
| NCI-H1395 | 0.832 | 1.08 | 0.995 | 1.04 | 0.829 | 1.38 | 1.27 | 1.09 | 0.566 | 1.02 | 1.2 | 0.929 | 0.614 | 0.893 | 0.884 | 0.889 | 1.01 | 0.561 |  |  |
| NCI-H460 | 0.176 | 0.122 | 0.2 | 0.133 | 0.055 | 1.22 | 1.16 | 0.701 | 0.0476 | 1.03 | 1.06 | 0.847 | 0.25 | 0.998 | 1.01 | 1.02 | 0.997 | 0.651 |  |  |
| NCI-H2228 | 0.354 | 0.57 | 0.379 | 0.387 | 0.181 | 1.08 | 0.99 | 0.617 | 0.931 | 1.26 | 0.939 | 0.951 | 0.294 | 0.894 | 1.06 | 1 | 0.995 | 0.604 | 1.08 | 1.25 |
| HOP-62 | 0.368 | 0.378 | 0.34 | 0.339 | 0.129 | 1.11 | 1.02 | 0.995 | 1.06 | 1.02 | 1.02 | 0.999 | 0.744 | 1.08 | 1.06 | 0.952 | 1.01 |  |  |  |
| LC-2-ad | 0.93 | 0.914 | 0.955 | 0.997 | 0.458 | 0.536 | 0.398 | 0.25 | 0.0791 | 1.06 | 0.969 | 0.526 | 0.248 | 1.02 | 0.987 | 1.03 | 0.925 | 0.498 | 0.486 | 0.716 |
| EKVX | 0.56 | 0.327 | 0.437 | 0.47 | 0.374 | 1.09 | 0.911 | 0.803 | 0.603 | 1.05 | 1.04 | 0.698 | 0.859 | 0.966 | 1.05 | 1.02 | 1.19 | 0.863 | 0.77 | 0.746 |
| NCI-H1651 | 0.842 | 0.886 | 0.739 | 0.76 | 0.716 | 1.17 | 0.965 | 1.01 | 0.33 | 1.03 | 1.01 | 0.95 | 0.753 | 1.06 | 0.983 | 0.978 | 0.959 | 0.926 | 0.914 | 0.906 |
| SK-LU-1 | 0.425 | 0.469 | 0.53 | 0.508 | 0.367 | 0.792 | 0.974 | 0.548 | 0.161 | 1.12 | 1.14 | 0.998 | 0.58 | 0.921 | 1.07 | 1.08 | 1.06 | 0.96 | 1.09 | 1.11 |
| NCI-H2405 | 0.572 | 0.597 | 0.637 | 0.647 | 0.628 | 1.28 | 1.09 | 1.15 | 0.58 | 1.04 | 1.08 | 1.03 | 0.984 | 1.02 | 1.06 | 1.06 | 1.01 | 0.781 | 0.628 | 0.819 |
| HCC-15 | 0.396 | 0.315 | 0.408 | 0.408 | 0.287 | 0.797 | 0.744 | 0.685 | 0.494 | 0.982 | 1.02 | 0.947 | 0.583 | 1.01 | 1.02 | 1.08 | 1.06 | 0.849 | 0.781 | 1.02 |
| NCI-H1650 | 0.629 | 0.539 | 0.784 | 0.426 | 0.36 | 1.23 | 0.932 | 0.354 | 0.286 | 1.12 | 1.03 | 0.419 | 0.223 | 0.974 | 0.874 | 0.946 | 0.889 | 0.297 |  |  |
| COR-L23 | 0.488 | 0.548 | 0.651 | 0.548 | 0.333 | 1.22 | 1.1 | 0.691 | 0.147 | 1.08 | 1.11 | 0.771 | 0.155 | 1.11 | 1.07 | 1.06 | 1.12 | 0.886 | 0.802 | 0.859 |
| PC-3 [JPC-3] | 0.672 | 0.83 | 0.75 | 0.717 | 0.599 | 0.82 | 0.765 |  | 0.612 | 1.01 | 1 |  | 0.691 | 1.06 | 1.03 | 0.993 | 1.11 | 0.942 | 0.753 | 0.991 |

Source: the supplement of paper PMC10307832
